Assay results published in patent publication US3992535A, “4-Hydroxy-2H-naphtho[2,1-e]-1,2-thiazine-3-carboxamide-1,1-dioxides and salts thereof” (priority 1974, dated 1976).
Where a name gives a salt, the structure may show the parent alone. Read-outs that look alike come from different tables or passages of the source.

Experiments:
[1] = tested on: adjuvant arthritis in the rat; test: Adjuvant arthritis in the rat; type: in vivo; details: for ED50: po, 504 h, per os, once a day for 20 days, paw volume on 21st day, read-out: Adjuvant arthritis in the rat ED50 per os (average value of primary and secondary reaction); for activity against adjuvant arthritis compared with phenylbutazone (D) (in words): vs phenylbutazone (D)
Method: d. Adjuvant arthritis in the rat: The adjuvant arthritis tests in rats were carried out according to the method of Rosenthale and Nagra [Proc. Soc. exp. Biol. 125, 149 (1967)]. […] The test compound was administered once a day, starting with the day of the M. butyricum-injection, for a period of 20 days by means of an esophageal tube. […] An ED50 was determined graphically from the reduction of the swelling caused by the administration of different doses.

[2] = tested on: kaolin- and carrageenin-induced edemas; test: Kaolin and carrageenin edema combined: average ED35 and therapeutic ratio LD50/ED35; type: in vivo; details: for ED35: Rattus norvegicus, read-out: Average value ED35; for Therapeutic ratio: ratio of toxic and anti-exsudative activity LD50 / ED35: oral LD50 / average ED35, rat
Method: (§1) The kaolin edema was induced according to the method of Hillebrecht [Arzneimittel-Forsch. 4, 607 (1954] by subplantar injection of 0.05 ml of a 10% suspension of kaolin in an aqueous 0.85% sodium chloride solution. Measurement of the thickness of the paws was effected using the technique of Doepfner and Cerletti [Int. Arch. Allergy Immunol. 12, 89 (1958)]. The test compound was administered perorally by means of an esophageal tube to male FW 49-rats having an average body weight of 120 to 150 gm 30 minutes before inducing the edema. 5 hours after the provocation of the edema, the average size of the swelling in the rats treated with the test compound was compared with the average size of the swelling in the control animals treated by a dummy procedure. By graphical extrapolation, the dose leading to a 35% reduction of the swelling (ED35) was calculated from the percentage reduction in the size of the swelling caused by the administration of different doses.
(§2) The provocation of the carrageenin edema was effected according to the method of Winter et al [Proc. Soc. exp. Biol. Med. 111, 544 (1962)] by subplantar injection of 0.05 ml of a 1% solution of carrageenin in an aqueous 0.85% solution of sodium chloride. The test compound was administered 60 minutes before the provocation of the edema.
(§3) For the calculation of the reductive effect on the edema, the size of the swelling was measured 3 hours after the provocation of the edema. All the other details were the same as described above in the case of the kaolin edema.
The therapeutic index (a measure of the therapeutic usefulness) was calculated as the quotient of the oral LD50 value and the ED35 value derived from the tests to determine the antiexsudative activity against kaolin- and carrageenininduced edemas.

[3] = tested on: kaolin-induced edema of the hind paw of the rat; test: Kaolin edema of the hind paw of the rat; type: in vivo; details: per os, 30 minutes before edema, 35% reduction of swelling at 5 hours
Method: (§4) Compound A and known compound B were tested to determine their actue antiexsudative effect on the kaolin-induced edema and the carrageenin-induced edema of the hind paw of the rat and their acute toxicity after oral administration in rats.
a. Kaolin edema of the hind paw of the rat:
as §1

[4] = tested on: carrageenin-induced edema of the hind paw of the rat; test: Carrageenin edema of the back paw of the rat; type: in vivo; details: per os, 60 minutes before edema, swelling at 3 hours
Method: as §4
b. Carrageenin edema of the back paw of the rat:
as §2, §3

[5] = Acute toxicity in the rat, oral; type: in vivo; details: in vivo, po, per os, male and female FW 49-rats, within 14 days
Method: (§5) The test compound was administered in the form of a trituration in tylose.
(§6) The calculation of the LD50 values was effected, to the extent possible, according to the method of Litchfield and Wilcoxon, based on the percentage of animals which died within 14 days after administration of the different doses.

[6] = tested on: thrombocyte aggregation in the platelet-rich plasma of healthy human donors; test: Born test; collagen aggregation; type: cell-based; details: for inhibition at 0.1 µM: 10^-^7 mol/liter; for 50% diminution of aggregation: times lower concentration than compound N: vs compound N (acetylsalicylic acid)
Method: b. […] The rate of decline of the optical density of platelet suspensions was measured and recorded photometrically after the addition of commercial collagen. From the angle of inclination of the density curve, the rate of aggregation was estimated. The optical density was taken at the point on the curve where most light was transmitted. The amount of collagen was chosen such that an irreversible control curve was obtained. The results were expressed in terms of the optical density and represent the percentage change in light transmission (= % diminution of the aggregation) caused by the test compound compared with the untreated control.

rat = test: Acute toxicity in the rat, oral; type: in vivo; details: per os, vs compound E
Method: as §5, §6

[7] = tested on: platelet stickiness in human citrate blood; test: Morris test (platelet stickiness, retention on glass beads); type: cell-based; details: for inhibition at 100 µM: Platelet, 10 min, 10^-^4 mol/liter, human citrate blood, read-out: Morris test (percentage reduction in the stickiness)
Method: The principle of the Morris test is described in "Stoffwechsel- and Membranpermeabilitat von Erythrozyten und Thrombozyten, I. Int.
1 ml of human citrate blood was pipetted into each of a number of small test tubes, the test compound was added in the desired concentrations, and the tubes were incubated at 37° C for 10 minutes. 2 gm each of glass beads (about 100 mesh) were added to half of the tubes. The tubes, stoppered by means of a plastic plug, were attached to a vertical wheel and rotated for 45 seconds end-over-end. The same tubes were then left to stand at ambient temperature for a further hour, after which time a sedimentation of erythrocytes and glass beads had taken place. 0.01 ml of the supernatant plasma was removed and diluted with 1:800 celloscope solution. The platelet count was read in a celloscope. The percentage of the thrombocytes retained in the sediment (adhering to the glass beads or aggregating) was calculated from the difference of the thrombocyte counts with and without glass contact.
The results were expressed in terms of the percentage reduction in the stickiness compared with the control (without addition of test compound).

[8] = Homo sapiens, 10^-^4 mol/liter, read-out: Born test (% diminution of the aggregation)
[9] = Homo sapiens, 10^-^5 mol/liter, read-out: Born test (% diminution of the aggregation)
[10] = Homo sapiens, 10^-^6 mol/liter, read-out: Born test (% diminution of the aggregation)
[11] = Homo sapiens, read-out: Born test (% diminution of the aggregation)

CN1C(C(=O)Nc2ccccn2)=C(O)c2ccc3ccccc3c2S1(=O)=O [C, 4-Hydroxy-2-methyl-N-(2-pyridyl)-2H-naphtho[2,1-e]-1,2-thiazine-3-carboxamide-1,1-dioxide]
activity against adjuvant arthritis (in words) [1]: surprisingly strong activity
ED50 [1]: ~4 mg/kg
activity against adjuvant arthritis compared with phenylbutazone (D) (in words) [1]: far superior

COc1ccc2c(c1)c(CC(=O)O)c(C)n2C(=O)c1ccc(Cl)cc1 [B, indomethacin, reference compound]
ED35 [2]: 2.8 mg/kg
Therapeutic ratio: ratio of toxic and anti-exsudative activity LD50 / ED35 [2]: 9.2
ED35 [3]: 2.7 mg/kg
ED35 [4]: 2.9 mg/kg
LD50 at 336 h [5]: 25.7 mg/kg

CN1C(C(=O)Nc2nccs2)=C(O)c2ccc3ccccc3c2S1(=O)=O [Compound A, 4-Hydroxy-2-methyl-N-(2-thiazolyl)-2H-naphtho[2,1-e]-1,2-thiazine-3-carboxamide-1,1-dioxide]
activity against adjuvant arthritis (in words) [1]: surprisingly strong activity
ED50 [1]: < 2 mg/kg
activity against adjuvant arthritis compared with phenylbutazone (D) (in words) [1]: far superior
ED35 [2]: 12.2 mg/kg
Therapeutic ratio: ratio of toxic and anti-exsudative activity LD50 / ED35 [2]: 16.9
therapeutic ratio relative to known compound B ([2]; vs compound B (indomethacin)): twice as great
ED35 [3]: 13.5 mg/kg
inhibition at 100 µM [6, 8]: 96%
inhibition at 10 µM [6, 9]: 95%
inhibition at 1 µM [6, 10]: 92%
inhibition at 0.1 µM [6, 11]: 65%
50% diminution of the aggregation: times lower concentration than compound E ([6]; vs compound E (sudoxicam)): at least 10 times lower
inhibiting effect on the thrombocyte aggregation compared with compound E (in words) ([6]; vs compound E (sudoxicam)): significantly stonger
ED35 [4]: 11 mg/kg
toxicity compared with compound E (in words) (rat): less toxic
LD50 at 336 h [5]: 207 mg/kg
inhibition at 100 µM [7]: 43%

Cc1nc(NC(=O)C2=C(O)c3ccc4ccccc4c3S(=O)(=O)N2C)sc1C [L, N-(4,5-Dimethyl-2-thiazolyl)-4-hydroxy-2-methyl-2H-naphtho[2,1-e]-1,2-thiazine-3-carboxamide-1,1-dioxide]
inhibition at 100 µM [6, 8]: 91%
inhibition at 10 µM [6, 9]: 95%
inhibition at 1 µM [6, 10]: 88%
inhibition at 0.1 µM [6, 11]: 15%
50% diminution of aggregation: times lower concentration than compound N [6]: at least 100 times lower

Cc1ccnc(NC(=O)C2=C(O)c3ccc4ccccc4c3S(=O)(=O)N2C)c1 [H, Sodium salt of 4-hydroxy-2-methyl-N-(4-methyl-2-pyridyl)-2H-naphtho[2,1-e]-1,2-thiazine-3-carboxamide-1,1-dioxide]
inhibition at 100 µM [6, 8]: 95%
inhibition at 10 µM [6, 9]: 91%
inhibition at 1 µM [6, 10]: 82%
50% diminution of aggregation: times lower concentration than compound N [6]: at least 100 times lower

CCc1nc(NC(=O)C2=C(O)c3ccc4ccccc4c3S(=O)(=O)N2C)sc1C [M, N-(4-Ethyl-5-methyl-2-thiazolyl)-4-hydroxy-2-methyl-2H-naphtho[2,1-e]-1,2-thiazine-3-carboxamide-1,1-dioxide]
inhibition at 100 µM [6, 8]: 94%
inhibition at 10 µM [6, 9]: 91%
inhibition at 1 µM [6, 10]: 79%
inhibition at 0.1 µM [6, 11]: 24%
50% diminution of aggregation: times lower concentration than compound N [6]: at least 100 times lower

CC(=O)Oc1ccccc1C(=O)O [N, acetylsalicylic acid, reference compound]
inhibition at 10 µM [6, 11]: 13%
inhibition at 30 µM [6, 11]: 45%
IC50 ([6]; Homo sapiens, read-out: concentration causing a 50% diminution of aggregation): ~40 µM

CCCCC1C(=O)N(c2ccccc2)N(c2ccccc2)C1=O [D, phenylbutazone, reference compound]
ED50 [1]: ~40 mg/kg

Cc1cccc(NC(=O)C2=C(O)c3ccc4ccccc4c3S(=O)(=O)N2C)c1 [G, 4-Hydroxy-2-methyl-N-(3-tolyl)-2H-naphtho[2,1-e]-1,2-thiazine-3-carboxamide-1,1-dioxide]
inhibition at 100 µM [6, 8]: 97%
inhibition at 10 µM [6, 9]: 78%
inhibition at 1 µM [6, 10]: 65%
50% diminution of aggregation: times lower concentration than compound N [6]: at least 20 times lower

Cc1cnc(NC(=O)C2=C(O)c3ccc4ccccc4c3S(=O)(=O)N2C)s1 [K, 4-Hydroxy-2-methyl-N-(5-methyl-2-thiazolyl)-2H-naphtho[2,1-e]-1,2-thiazine-3-carboxamide-1,1-dioxide]
inhibition at 100 µM [6, 8]: 89%
inhibition at 10 µM [6, 9]: 97%
inhibition at 1 µM [6, 10]: 66%
50% diminution of aggregation: times lower concentration than compound N [6]: at least 20 times lower

CN1C(C(=O)Nc2cccc(Cl)c2)=C(O)c2ccc3ccccc3c2S1(=O)=O [F, N-(3-Chloro-phenyl)-4-hydroxy-2-methyl-2H-naphtho[2,1-e]-1,2-thiazine-3-carboxamide-1,1-dioxide]
inhibition at 100 µM [6, 8]: 96%
inhibition at 10 µM [6, 9]: 81%
inhibition at 1 µM [6, 10]: 35%
50% diminution of aggregation: times lower concentration than compound N [6]: at least 20 times lower

CN1C(C(=O)Nc2nccs2)=C(O)c2ccccc2S1(=O)=O [E, 4-hydroxy-2-methyl-N-(2-thiazolyl)-2H-1,2-benzothiazine-3-carboxamide-1,1-dioxide, reference compound]
inhibition at 1 µM [6, 11]: 33%
inhibition at 10 µM [6, 11]: 91%
inhibition at 100 µM [6, 11]: 92%
LD50 at 336 h [5]: 136 mg/kg
inhibition at 100 µM [7]: 3%
inhibition of the stickiness in the Morris test in comparison with compound A (in words) ([7]; vs compound A): practically ineffective

Cc1csc(NC(=O)C2=C(O)c3ccc4ccccc4c3S(=O)(=O)N2C)n1 [J, 4-Hydroxy-2-methyl-N-(4-methyl-2-thiazolyl)-2H-naphtho[2,1-e]-1,2-thiazine-3-carboxamide-1,1-dioxide]
inhibition at 100 µM [6, 8]: 92%
inhibition at 10 µM [6, 9]: 89%
inhibition at 1 µM [6, 10]: 88%
inhibition at 0.1 µM [6, 11]: 4%
50% diminution of aggregation: times lower concentration than compound N [6]: at least 100 times lower

CN1C(C(=O)Nc2cncc(Cl)n2)=C(O)c2ccc3ccccc3c2S1(=O)=O [I, N-(6-Chloro-2-pyrazinyl)-4-hydroxy-2-methyl-2H-naphtho[2,1-e]-1,2-thiazine-3-carboxamide-1,1-dioxide]
inhibition at 10 µM [6, 9]: 91%
inhibition at 1 µM [6, 10]: 91%
inhibition at 0.1 µM [6, 11]: 22%
50% diminution of aggregation: times lower concentration than compound N [6]: at least 100 times lower
